Measured values: patent US20230085307A1, “PYRIDAZINONE COMPOUND AND HERBICIDE” (NISSAN CHEMICAL CORPORATION, priority 2019, published 2023)

Key:
Japanese bulrush = experiment: Test Example 2: herbicidal activity, application during weed generation under submerged conditions (Table 17, symbol B); format: in vivo, Japanese bulrush (Schoenoplectus juncoides); conditions: AAH 320 g/ha; application during weed generation, submerged conditions
Method in brief: (§1)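 Wagner pot, alluvial soil, 4 cm flood; mixed sowing of all species; greenhouse 25° C.–30° C. Emulsifiable formulation, water-diluted to predetermined dose, applied to paddy water at 1–2 leaf stage. Effect rated at 3 wk using the earlier test's scoring criteria.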

oval-leafed pondweed [1] = experiment: Test Example 2: herbicidal activity, application during weed generation under submerged conditions (Table 17, symbol C); format: in vivo, oval-leafed pondweed (Monochoria vaginalis); conditions: AAH 320 g/ha; application during weed generation, submerged conditions
Method in brief: as §1

persian speedwell [2] = experiment: Test Example 4: herbicidal effect by soil treatment (Table 19, symbol R); format: in vivo, Persian speedwell (Veronica persica); conditions: for R: persian speedwell, herbicidal effect rating: AAH 320 g/ha
Method in brief: (§2)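 Emulsion of test compound, water-diluted to predetermined amount, sprayed on soil after sowing (seed depth ~1.5 cm, sterilized diluvial soil). Greenhouse, 25–30° C. Effect graded at three weeks post-spray.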

southern crabgrass = experiment: Test Example 5: herbicidal effect by foliage application, plastic box (Table 20, symbol F); format: in vivo, southern crabgrass (Digitaria ciliaris); conditions: foliage application; for effect on southern crabgrass (F): 320 g/ha, 3 weeks after application
Method in brief: (§3)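 Post-emergence foliar test in sterilized diluvial soil. Compound applied as water-diluted emulsion at a predetermined rate to 14-day-old plants; evaluation at three weeks.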

barnyard grass = experiment: Test Example 5: herbicidal effect by foliage application, plastic box (Table 20, symbol H); format: in vivo, barnyard grass (Echinochloa crus-galli); conditions: foliage application; for effect on barnyard grass (H): 320 g/ha, 3 weeks after application
Method in brief: as §3

oval-leafed pondweed [3] = experiment: Test Example 1: herbicidal activity, application before weed generation under submerged conditions (Table 16, symbol C); format: in vivo, oval-leafed pondweed (Monochoria vaginalis); conditions: 320 g/ha applied herbicide
Method in brief: (§4)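 Emulsion formulation, water-diluted to set dose, was put onto the flooded surface (4 cm depth, alluvial soil) the same day weeds were sown and 2.5-leaf rice transplanted. After 3 weeks at 25-30 °C under glass, each species was rated 0 (≤5% kill) to 5 (≥90% kill).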

late watergrass = experiment: Test Example 1: herbicidal activity, application before weed generation under submerged conditions (Table 16, symbol A); format: in vivo, late watergrass (Echinochloa oryzicola); conditions: 320 g/ha applied herbicide
Method in brief: as §4

wild oat = experiment: Test Example 4: herbicidal effect by soil treatment (Table 19, symbol I); format: in vivo, wild oat (Avena fatua); conditions: for I: wild oat, herbicidal effect rating: AAH 320 g/ha
Method in brief: as §2

persian speedwell [4] = experiment: Test Example 5: herbicidal effect by foliage application, plastic box (Table 20, symbol R); format: in vivo, Persian speedwell (Veronica persica); conditions: foliage application; for effect on persian speedwell (R): 320 g/ha, 3 weeks after application
Method in brief: as §3

Italian ryegrass = experiment: Test Example 4: herbicidal effect by soil treatment (Table 19, symbol K); format: in vivo, Italian ryegrass (Lolium multiflorum); conditions: for K: Italian ryegrass, herbicidal effect rating: AAH 320 g/ha
Method in brief: as §2

velvetleaf = experiment: Test Example 5: herbicidal effect by foliage application, plastic box (Table 20, symbol M); format: in vivo, velvetleaf (Abutilon theophrasti); conditions: foliage application; for effect on velvetleaf (M): 320 g/ha, 3 weeks after application
Method in brief: as §3

rice flat sedge = experiment: Test Example 3: herbicidal effect by foliage application, Wagner pot (Table 18, symbol E); format: in vivo, rice flat sedge (Cyperus iria); conditions: for herbicidal effect on E (rice flat sedge), rating 0-5: 320 g/ha
Method in brief: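 Plants were sown in alluvial soil held under 0.1–0.5 cm standing water and grown 14 days in a greenhouse at 25–30 °C. An emulsifiable formulation, water-diluted to the set dose, was then sprayed onto the foliage, and effects were scored three weeks later using previously defined criteria.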

green foxtail = experiment: Test Example 5: herbicidal effect by foliage application, plastic box (Table 20, symbol G); format: in vivo, green foxtail (Setaria viridis); conditions: foliage application; for effect on green foxtail (G): 320 g/ha, 3 weeks after application
Method in brief: as §3

windgrass = experiment: Test Example 4: herbicidal effect by soil treatment (Table 19, symbol L); format: in vivo, windgrass (Apera spica-venti); conditions: AAH 320 g/ha
Method in brief: as §2

redroot pigweed = experiment: Test Example 5: herbicidal effect by foliage application, plastic box (Table 20, symbol N); format: in vivo, redroot pigweed (Amaranthus retroflexus); conditions: foliage application, AAH 320 g/ha, evaluated three weeks after application
Method in brief: as §3

chickweed = experiment: Test Example 5: herbicidal effect by foliage application, plastic box (Table 20, symbol P); format: in vivo, common chickweed (Stellaria media); conditions: foliage application, AAH 320 g/ha, evaluated three weeks after application
Method in brief: as §3

[5] = amount of applied herbicide 320 g/ha
[6] = AAH 320 g/ha, evaluated three weeks after application

Row | Structure (SMILES) | herbicidal effect rating, B: Japanese bulrush (Japanese bulrush) | herbicidal effect rating, C: oval-leafed pondweed (oval-leafed pondweed [1]) | R: persian speedwell, herbicidal effect rating (persian speedwell [2]) | effect on southern crabgrass (F) (southern crabgrass) | effect on barnyard grass (H) (barnyard grass) | Herbicidal effect on C: oval-leafed pondweed (grade 0-5) (oval-leafed pondweed [3]) | Herbicidal effect on A: late watergrass (grade 0-5) (late watergrass) | I: wild oat, herbicidal effect rating (wild oat) | effect on persian speedwell (R) (persian speedwell [4]) | K: Italian ryegrass, herbicidal effect rating (Italian ryegrass) | effect on velvetleaf (M) (velvetleaf) | herbicidal effect on E (rice flat sedge), rating 0-5 (rice flat sedge) | effect on green foxtail (G) (green foxtail) | L: windgrass, herbicidal effect rating (windgrass) | further results
1 | Cc1nn(C)c(=O)c(-c2c(-c3ccc(OCC(F)F)cc3)sc3ccccc23)c1O [1-203] | 3 (Herbicidal rate of 40% or more and less than 70%) | 4 (Herbicidal rate of 70% or more and less than 90%) | 5 (Herbicidal rate of 90% or more (almost completely withered)) | 3 (Herbicidal rate of 40% or more and less than 70%) | 5 (Herbicidal rate of 90% or more (almost completely withered)) | 4 (Herbicidal rate of 70% or more and less than 90%) | 5 (Herbicidal rate of 90% or more (almost completely withered)) | 1 (Herbicidal rate of 5% or more and less than 20%) | 5 (Herbicidal rate of 90% or more (almost completely withered)) | 5 (Herbicidal rate of 90% or more (almost completely withered)) | 5 (Herbicidal rate of 90% or more (almost completely withered)) | 5 (Herbicidal rate of 90% or more (almost completely withered)) | 5 (Herbicidal rate of 90% or more (almost completely withered)) | 0 (Herbicidal rate of 5% or less (almost no effect)) | 
2 | COCCOCOc1c(C)nn(C)c(=O)c1-c1c(-c2ccc(OCCSC)cc2)sc2ccccc12 [1-221] | 3 (Herbicidal rate of 40% or more and less than 70%) | 3 (Herbicidal rate of 40% or more and less than 70%) | 5 (Herbicidal rate of 90% or more (almost completely withered)) | 5 (Herbicidal rate of 90% or more (almost completely withered)) | 5 (Herbicidal rate of 90% or more (almost completely withered)) | 3 (Herbicidal rate of 40% or more and less than 70%) | 5 (Herbicidal rate of 90% or more (almost completely withered)) | 0 (Herbicidal rate of 5% or less (almost no effect)) | 5 (Herbicidal rate of 90% or more (almost completely withered)) | 5 (Herbicidal rate of 90% or more (almost completely withered)) | 5 (Herbicidal rate of 90% or more (almost completely withered)) | 5 (Herbicidal rate of 90% or more (almost completely withered)) | 5 (Herbicidal rate of 90% or more (almost completely withered)) | 0 (Herbicidal rate of 5% or less (almost no effect)) | 
3 | C#CCSCc1ccc(-c2sc3ccccc3c2-c2c(O)c(C)nn(C)c2=O)cc1 [1-247] | 0 (Herbicidal rate of 5% or less (almost no effect)) | 0 (Herbicidal rate of 5% or less (almost no effect)) | 4 (Herbicidal rate of 70% or more and less than 90%) | 2 (Herbicidal rate of 20% or more and less than 40%) | 4 (Herbicidal rate of 70% or more and less than 90%) | 0 (Herbicidal rate of 5% or less (almost no effect)) | 2 (Herbicidal rate of 20% or more and less than 40%) | 0 (Herbicidal rate of 5% or less (almost no effect)) | 5 (Herbicidal rate of 90% or more (almost completely withered)) | 3 (Herbicidal rate of 40% or more and less than 70%) | 5 (Herbicidal rate of 90% or more (almost completely withered)) | 4 (Herbicidal rate of 70% or more and less than 90%) | 4 (Herbicidal rate of 70% or more and less than 90%) | 0 (Herbicidal rate of 5% or less (almost no effect)) | 
4 | Cc1nn(C)c(=O)c(-c2c(-c3ccc(F)cc3)sc3ccc(F)cc23)c1O [2-001] | 2 (Herbicidal rate of 20% or more and less than 40%) | 3 (Herbicidal rate of 40% or more and less than 70%) | 5 (Herbicidal rate of 90% or more (almost completely withered)) | 5 (Herbicidal rate of 90% or more (almost completely withered)) | 5 (Herbicidal rate of 90% or more (almost completely withered)) | 1 (Herbicidal rate of 5% or more and less than 20%) | 2 (Herbicidal rate of 20% or more and less than 40%) | 3 (Herbicidal rate of 40% or more and less than 70%) | 5 (Herbicidal rate of 90% or more (almost completely withered)) | 4 (Herbicidal rate of 70% or more and less than 90%) | 5 (Herbicidal rate of 90% or more (almost completely withered)) | 5 (Herbicidal rate of 90% or more (almost completely withered)) | 5 (Herbicidal rate of 90% or more (almost completely withered)) | 0 (Herbicidal rate of 5% or less (almost no effect)) | 
5 | COCCOC(=O)Oc1c(C)nn(C)c(=O)c1-c1c(-c2ccc(OC(F)F)cc2)sc2ccc(F)cc12 [2-295] | 3 (Herbicidal rate of 40% or more and less than 70%) | 3 (Herbicidal rate of 40% or more and less than 70%) |  |  |  | 2 (Herbicidal rate of 20% or more and less than 40%) | 4 (Herbicidal rate of 70% or more and less than 90%) |  |  |  |  |  |  |  | herbicidal effect on R: persian speedwell (persian speedwell [2]; [5]): 5 (Herbicidal rate of 90% or more (almost completely withered)); F: southern crabgrass, herbicidal effect (criteria 0-5) (southern crabgrass; [6]): 4 (Herbicidal rate of 70% or more and less than 90%); H: barnyard grass, herbicidal effect (criteria 0-5) (barnyard grass; [6]): 5 (Herbicidal rate of 90% or more (almost completely withered)); N: redroot pigweed, herbicidal effect (criteria 0-5) (redroot pigweed): 5 (Herbicidal rate of 90% or more (almost completely withered)); herbicidal effect on I: wild oat (wild oat; [5]): 1 (Herbicidal rate of 5% or more and less than 20%); R: persian speedwell, herbicidal effect (criteria 0-5) (persian speedwell [4]; [6]): 5 (Herbicidal rate of 90% or more (almost completely withered)); herbicidal effect on K: Italian ryegrass (Italian ryegrass; [5]): 5 (Herbicidal rate of 90% or more (almost completely withered)); M: velvetleaf, herbicidal effect (criteria 0-5) (velvetleaf; [6]): 5 (Herbicidal rate of 90% or more (almost completely withered)); herbicidal effect on E: rice flat sedge (rice flat sedge; [5]): 5 (Herbicidal rate of 90% or more (almost completely withered)); G: green foxtail, herbicidal effect (criteria 0-5) (green foxtail; [6]): 5 (Herbicidal rate of 90% or more (almost completely withered)); P: chickweed, herbicidal effect (criteria 0-5) (chickweed): 5 (Herbicidal rate of 90% or more (almost completely withered))
